# In patent publication US10478437B2, “Combination therapy to enhance the anticancer efficacy of platinum drugs” (University of Pittsburgh-of the Commonwealth System of …, priority 2014, dated 2019):
# What was measured:
# Type in all cases: cell-based, human
# [1] = tested on: cisplatin-resistant ovarian cancer cell line A2780cis; experiment: Caspase-3/7 activity assay (apoptotic cell death), compound alone or with cisplatin; details: compound 20 μM, 20 h
# How it was run: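 Caspase-3/7 activity in A2780cis cells treated with compound alone or with cisplatin, luminescent Caspase-Glo 3/7 read-out. Apoptotic morphology is checked microscopically just before measurement.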
# [2] = tested on: cisplatin-resistant ovarian cancer cell line A2780cis; experiment: CellTiter-Blue cell viability assay, compound alone or with cisplatin or carboplatin, 24 h; details: compound 20 μM; 24 h; untreated cells = 100%
# Experimental: Data were expressed as mean±standard deviation. A Student's t test was used for the comparisons between the treatment with the combination of analogs with cisplatin and with analogs alone. P<0.05 was considered statistically significant. Combination index was calculated using CompuSyn software. A value of 0.3-0.7 for the combination index indicates synergism, 0.1-0.3 indicates strong synergism, and <0.1 indicates very strong synergism (Chou, 2006).
# To further validate the activity of the identified 11 active compounds (see FIG. 3), a CellTiter-Blue cell viability assay was performed with increasing concentrations (10 μM, 20 μM and 50 μM) of the disclosed compounds (see FIG. 4 and Table 5). Cisplatin resistant ovarian cancer cells (A2780cis) were treated with a disclosed compound alone, cisplatin alone or a combination of a compound with cisplatin for 24 h to determine the effects of the compounds on cell viability.
# Analysis of the effect of the disclosed compounds with another platinum-containing compound, carboplatin, was performed. A2780cis cells were treated with carboplatin alone or with the combination of carboplatin and the disclosed compounds at indicated concentrations for 24 h followed by the analysis of cell viability.
# A2780cis cells [3] = experiment: Short-term (3 h) exposure, cell survival by CellTiter-Blue after 48 h in compound free media; details: cisplatin alone, viability after two days, in words
# Experimental: FIG. 5. Short-term exposure of A2780cis cells to the combination of cisplatin and compound 1-6 dramatically reduces cell survival. A2780cis cells were treated with increasing doses of cisplatin alone or the combination of cisplatin with compound 1-6 (20 μM) for 3 h. The compounds were then washed out. Cell survival was determined after 48 h incubation of cells in compound free media by CellTiter-Blue assay.
# Further analysis was performed with compound 1-6. […] This synergism for the combination of cisplatin and 1-6 was further confirmed using a fresh sample of high chemical purity (98%). This synergistic effect was also observed using the CellTiter-Blue cell viability assay (FIG. 5) under an alternative exposure strategy that mimics in viva drug administration to test the combination effect. Considering the clearance of cisplatin over the time and the duration of exposure of tumor cells to the effective doses of the drugs in vivo (Los et al., 1989), a short-term exposure of cells to the combination of 20 μM of 1-6 with various doses of cisplatin was tested, followed by cell viability assay after two days.
# A2780cis cells [4] = experiment: Western blot of caspase/PARP cleavage, Noxa induction, RPA32 and H2AX phosphorylation; details: cisplatin 20 μM alone, FIG. 8A
# Experimental: (§1) Whole cell lysate was prepared by lysing cells in cell lysis buffer (Cell signaling technology) containing complete protease inhibitor (Roche). Cell lysates were then cleared at 15,000 rpm for 15 min at 4° C. The protein content was quantified using a Bio-Rad Protein Assay kit (Bio-Rad Laboratories, Hercules, Calif.). The equal amount of protein was separated on Tris-glycine gels (Invitrogen). The separated proteins were blotted onto a polyvinylidene difluoride membrane and blocked overnight at 4° C. in phosphate-buffered saline containing 0.1% Tween 20 and 10% nonfat dry milk (blocking buffer). Membranes were incubated with primary antibodies in blocking buffer overnight at 4° C. Primary antibodies used were: β-actin from Sigma; Bax, Bak, Caspase-9 and cleaved Caspase-3 from Cell Signaling Technology; phospho-Histone H2AX (Ser 139) and Noxa from Millipore. Membranes were then washed and incubated in peroxidase conjugated anti-rabbit IgG (Sigma) or anti-mouse IgG (Sigma) secondary antibody for 1 h at room temperature. Membranes were developed using SuperSignal West Femto Maximum Sensitivity Substrate (Thermo Fisher Scientific).
# A2780cis cells were treated with cisplatin alone, compounds alone or in combination with cisplatin at indicated concentrations for 20 h to analyze apoptotic cell death in response to treatment. […] Expression and cleavage of several major caspases (Caspase-8, Caspase-9 and Caspase-3), as well as poly(ADP-ribose) polymerase (PARP) and NOXA. A2780cis cells were treated with cisplatin (20 μM) alone, compounds (20 μM) alone or in combination with cisplatin for 20 h.
# To determine the effects of the compounds on DNA damage and mitochondrial dysfunction, A2780cis cells were treated with cisplatin (20 μM) alone or the combination of cisplatin with 20 μM of compound 1-6. Replication protein A (RPA) is a single strand-specific DNA-binding protein, consisting of three subunits, RPA70, RPA32, and RPA14. RPA32 is phosphorylated in response to DNA replication stress. Western blot analysis was performed to evaluate the phosphorylation of RPA32 and histone H2AX, the induction of Noxa expression and cleavage of caspase-3. […] A2780cis cells were treated with cisplatin (50 μM) alone, 1-6 (50 μM) alone or the combination of cisplatin and compound 1-6 for 4 h. The oxygen consumption rate (OCR) was measured by a Seahorse extracellular flux analyzer.
# [5] = tested on: PEO4, SKOV3, H1299, MDA-MB-231, Ca133 cells; experiment: Western blot of PARP and Caspase-3 cleavage in other cisplatin-resistant cancer cells; details: 20 μM alone, 20 h, FIG. 9; in words
# Experimental: FIG. 9. The combination of cisplatin and compound 1-6 triggers extensive apoptosis in various types of cisplatin- and multidrug-resistant tumor cells. Cisplatin-resistant cancer cells PEO4 (ovarian), SKOV3 (ovarian), H1299 (lung), MDA-MB-231 (breast), Ca133 (head & neck) were treated with DMSO (untreated), cisplatin (20 μM) alone, compound 1-6 (20 μM) alone, or the combination for 20 h. Cleavage of PARP and Caspase-3 were determined by western blot.
# as §1
# To evaluate whether the synergistic effects of the disclosed compounds and cisplatin could be extended to other types of cancer cells, breast cancer cells (MDA-MB-231), non-small cell lung carcinoma cells (H-1299), ovarian cancer cells (PEO4 and SKOV3) and head and neck cancer cells (Ca133) were treated with various combinations of cisplatin and compound 1-6 and analyzed for Caspase-3.
smiles,measurement,setting,value
"N.N.[Cl][Pt][Cl] [cisplatin, reference compound]","caspase-3/7 activity (Lum), compound alone","[1]; Table 1, mean ± S.D. of triplicates",30 ± 1 Lum
same,"caspase-3/7 activity (Lum), compound alone",[1]; Table 2,30 ± 1 Lum
same,"caspase-3/7 activity (Lum), compound alone",[1]; Table 3,35 ± 4 Lum
same,"caspase-3/7 activity (Lum), compound alone",[1]; Table 4,35 ± 4 Lum
same,caspase-3/7 activity (Lum) with compound alone,"[1]; Table 6, untreated cells 9 ± 1",28 ± 4 Lum
same,survival (%) of cells with compound alone,[2],89.3 ± 0.6%
same,effect of 3 hr exposure to cisplatin alone on cell viability,A2780cis cells [3],slight effect on cell viability
same,"time of increase in the phosphorylation of RPA32 post treatment, cisplatin alone",A2780cis cells [4],> 12 h
same,cell death after single compound exposure,[5],minimal effect in inducing cell death
